# Experimental data published in PMC6592621 (Experimental neurology, 2019).
# Key:
# p38 = settings: treatment in mice; ref Dong et al., 2016; cited from earlier work
# p46-JNK = settings: treatment in mice; ref Dong et al., 2016; cited from earlier work
# p54-JNK = settings: treatment in mice; ref Dong et al., 2016; cited from earlier work
# CD68 expression = settings: mouse EAE hippocampus; ref Bellizzi et al., 2018; cited from earlier work
# striatal TH = assay: Western blot of striatal TH in MPTP model; type: in vivo, C57BL/6J mice; settings: 20 mg/kg MPTP for 5 days, vs neurotoxin vehicle or drug vehicle
# striatal DA = assay: HPLC of striatal neurochemistry in MPTP model; type: in vivo, C57BL/6J mice; settings: MPTP 20 mg/kg s.c. 5 days, vs neurotoxin vehicle or drug vehicle
# TH+ neurons in the SNpc = type: in vivo, C57BL/6J mice; settings: MPTP-treated mice vs neurotoxin vehicle or drug vehicle controls
# [1] = in mice; ref Parkinson Study Group, 2007; cited from earlier work
# 185 other kinases = settings: at 1uM; ref Goodfellow et al., 2013; cited from earlier work
# [2] = over 4 weeks in subjects with PD; ref Parkinson Study Group, 2007; cited from earlier work
compound,measurement,setting,value
CN1CCN(Cc2ccc(-c3cnc4[nH]cc(-c5ccc6[nH]ccc6c5)c4c3)cc2)CC1 [URMC-099],decrease in phosphorylation of p38,p38,21.5%
same,decrease in phosphorylation of p46-JNK,p46-JNK,17.3%
same,decrease in phosphorylation of p54-JNK,p54-JNK,23.7%
same,effect on CD68 expression,CD68 expression,prevented increased CD68 expression
"CN1CC=C(c2ccccc2)CC1 [MPTP, 1-methyl-4-phenyl-1,2,3,6-tetrahydropyridine]",reduction in striatal TH expression,striatal TH,approximately 50%
same,reduction in striatal dopamine,striatal DA,approximately 50%
same,reduction in the number of TH+ neurons in the SNpc,TH+ neurons in the SNpc,approximately 84%
CCSCc1ccc2c(c1)c1c3c(c4c5cc(CSCC)ccc5n5c4c1n2[C@H]1C[C@](O)(C(=O)OC)[C@]5(C)O1)CNC3=O [CEP-1347],brain/plasma ratio,[1],< 0.2
same,number of other kinases with 50% inhibition,185 other kinases,185
same,safety and tolerability,[2],safe and well tolerated
